In PMC7023466, “Novel N,N′-Disubstituted Acylselenoureas as Potential Antioxidant and Cytotoxic Agents” (Antioxidants, 2020):
Where two headings read alike, the source gives them in different places.

Key:
MCF-7 cells = assay: MTT cell viability assay, MCF-7; assay type: cell-based, human; settings: for activity at 10 µM / activity at 50 µM / IC50: Homo sapiens, MCF7; for activity at 10 µM / activity at 50 µM / reduction of cell growth / IC50: 48 h; for activity at 10 µM / activity at 50 µM: read-out: Growth (%) MCF-7; for reduction of cell growth: in at least one of the cell lines (MCF-7, HT-29, HTB-54)
Procedure: (§1) The cell viability assay of each compound was carried out using the MTT assay. Each compound was dissolved in dimethyl sulfoxide (DMSO) at a concentration of 0.01 M. Serial dilutions were prepared with a non-supplemented culture medium. The effect of each compound on the cell viability was determined at two different concentrations (10 and 50 µM) in MCF-7, HTB-54, and HT-29 cells. In addition, the selected compounds were tested at six different concentrations between 0.1–100 µM in MCF-7, T47D, H1299, HTB-54, and 184B5 cells.
(§2) Briefly, 1 × 10^4 tumor cells/well or 2 × 10^4 non-tumorigenic cells/well were grown in 96-well plates for 12 h. Then, these cells were incubated with either DMSO (control) or a different concentration of each of the tested compounds for 48 h. Three hours before the termination point, 20 µL of MTT were added to measure the cellular viability. The resultant formazan crystals were dissolved in 50 µL of DMSO, and the absorbance was measured at 570 and 630 nm. The results are expressed as IC50, the half maximal inhibitory concentration. This value was calculated using OriginPro 8.5.1. software (OriginLab, Northampton, MA, USA) by nonlinear curve fitting. Furthermore, the selectivity index (SI) was calculated as the ratio of the IC50 values determined for the non-malignant and the tumor cells (IC50 (184B5)/IC50 (MCF-7). The data were obtained from at least three independent experiments performed in quadruplicates.

HT-29 cells = assay: MTT cell viability assay, HT-29; assay type: cell-based; settings: Homo sapiens, 48 h, read-out: Growth (%) HT-29
Procedure: as §1, §2

HTB-54 cells = assay: MTT cell viability assay, HTB-54; assay type: cell-based; settings: Homo sapiens, 48 h; for activity at 10 µM / activity at 50 µM: read-out: Growth (%) HTB-54
Procedure: as §1, §2

H1299 cells = assay: MTT cell viability assay, H1299; assay type: cell-based; settings: Homo sapiens, NCI-H1299, lung cancer cells, 48 h
Procedure: as §1, §2

T47D cells = assay: MTT cell viability assay, T47D; assay type: cell-based; settings: Homo sapiens, breast cancer cells, 48 h
Procedure: as §1, §2

184B5 cells = assay: MTT cell viability assay, non-malignant 184B5; assay type: cell-based; settings: Homo sapiens, non-malignant breast cells, 48 h
Procedure: as §1, §2

[1] = breast cancer cells, MTT, read-out: IC50 MCF-7
[2] = HTB-54, lung cancer cells, MTT, read-out: IC50 HTB-54

SMILES | activity at 10 µM (MCF-7 cells; 10 μM) [%] | activity at 50 µM (MCF-7 cells; 50 μM) [%] | activity at 10 µM (HT-29 cells) [%] | activity at 50 µM (HT-29 cells) [%] | activity at 10 µM (HTB-54 cells; HTB-54) [%] | activity at 50 µM (HTB-54 cells; HTB-54) [%] | reduction of cell growth (MCF-7 cells; 10 μM) | reduction of cell growth (MCF-7 cells; 50 μM) | IC50 (MCF-7 cells; MCF-7 and T47D pooled, read-out: IC50 on breast cancer cells) [µM] | IC50 (MCF-7 cells; [1]) [µM] | IC50 (HTB-54 cells; [2]) [µM] | IC50 (H1299 cells) [µM] | IC50 (T47D cells) [µM] | IC50 (184B5 cells) [µM] | SI (selectivity index) (MCF-7 cells; IC50 (184B5)/IC50 (MCF-7)) | IC50 (HTB-54 cells; HTB-54 and H1299 pooled, read-out: IC50 on both lung cancer cells) [µM]
O=C(NC(=[Se])Nc1ccc(C(F)(F)F)cc1)C12CC3CC(CC(C3)C1)C2 [Compound 7d] | 87.9 | 25.3 | 49.5 | 29.6 | 92.9 | 79.8 |  |  |  |  |  |  |  |  |  | 
O=C(NC(=[Se])Nc1ccc(Cl)cc1)c1ccccc1Cl [Compound 2e] | 118 | 16 | 77.8 | 57.9 | 96.7 | 18.6 |  |  |  |  |  |  |  |  |  | 
Cc1ccc(NC(=[Se])NC(=O)c2cccs2)cc1 [Compound 5b] | 64.2 | 17.5 | 82.8 | 36.8 | 66.8 | 66.7 |  |  |  |  |  |  |  |  |  | 
O=C(NC(=[Se])Nc1ccccc1)c1ccccc1 [Compound 1a] | 70.5 | 6.6 | 56.9 | 23.4 | 67.8 | 57.1 |  |  |  |  |  |  |  |  |  | 
O=C(NC(=[Se])Nc1ccc(C(F)(F)F)cc1)c1cccs1 [Compound 5d] | 46.7 | 23.5 | 60.6 | 29.3 | 76.2 | 4.3 | at least 45% | more than 85% | 4.2 to 8 | 4.2 ± 0.2 | 14.6 ± 6.3 | 7.5 ± 0.2 | 6.1 ± 0.4 | > 100 |  | 
O=C(C=Cc1ccccc1)NC(=[Se])Nc1ccc(Cl)cc1 [Compound 8e] | 69.6 | 11.8 | 85.2 | 40.6 | 76.1 | 31.2 |  |  |  |  |  |  |  |  |  | 
O=C(NC(=[Se])Nc1ccc(Cl)cc1)c1cccnc1Cl [Compound 4e] | 90.6 | 60.2 | 93.4 | 67 | 92.1 | 63.5 |  |  |  |  |  |  |  |  |  | 
O=C(NC(=[Se])Nc1ccccc1)c1cccs1 [Compound 5a] | 70.3 | 27.4 | 73.5 | 39 | 76.8 | 43.7 |  |  |  |  |  |  |  |  |  | 
O=C(NC(=[Se])Nc1ccccc1)c1cccnc1Cl [Compound 4a] | 68.8 | 29.3 | 99.1 | 34.1 | 83.1 | 67.6 |  |  |  |  |  |  |  |  |  | 
COc1ccc(NC(=[Se])NC(=O)c2ccc3c(c2)OCO3)cc1 [Compound 10c] | 52.7 | 15.6 | 55.7 | 35.5 | 78.2 | 5.1 | at least 45% | more than 85% |  | 8.5 ± 0.6 | 5.2 ± 4 | 7.3 ± 0.2 | 12.9 ± 1.5 | 53.8 ± 10.5 | 6.3 | 1.5 to 7.3
O=C(C=Cc1ccccc1)NC(=[Se])Nc1ccc(C(F)(F)F)cc1 [Compound 8d] | 91.1 | 18.5 | 76 | 37.3 | 90 | 41.1 |  |  |  |  |  |  |  |  |  | 
O=C(NC(=[Se])Nc1ccc(C(F)(F)F)cc1)c1ccccc1 [Compound 1d] | 73.6 | 21.9 | 97.3 | 25.1 | 84.9 | 38.7 |  |  |  |  |  |  |  |  |  | 
O=C(NC(=[Se])Nc1ccc(Cl)cc1)c1ccco1 [Compound 6e] | 62.7 | 11.2 | 75.2 | 31.1 | 84.1 | 4 |  |  |  |  |  |  |  |  |  | 
O=C(/C=C/c1ccccc1)NC(=[Se])Nc1ccccc1 [Compound 8a] | 75.8 | 15.3 | 98.6 | 34.2 | 65.2 | 49.7 |  |  |  |  |  |  |  |  |  | 
O=C(NC(=[Se])Nc1ccccc1)c1cc2ccccc2s1 [Compound 9a] | 64.9 | 43.4 | 62 | 28.6 | 66.9 | 3.3 |  |  |  |  |  |  |  |  |  | 
CSc1ccc(Cl)c(C(=O)NC(=[Se])Nc2ccc(Cl)cc2)c1 [Compound 3e] | 105 | 32.4 | 76.6 | 73 | 79.4 | 35.8 |  |  |  |  |  |  |  |  |  | 
COc1ccc(NC(=[Se])NC(=O)c2cccs2)cc1 [Compound 5c] | 90.7 | 11.8 | 57.5 | 34.6 | 85 | 60.2 |  |  |  |  |  |  |  |  |  | 
O=C(NC(=[Se])Nc1ccc(Cl)cc1)c1cccs1 [Compound 5e] | 77.6 | 20.8 | 78.1 | 37.8 | 73.2 | 58.1 |  |  |  |  |  |  |  |  |  | 
COc1ccc(NC(=[Se])NC(=O)c2cccnc2Cl)cc1 [Compound 4c] | 86.6 | 33 | 99.1 | 51.6 | 88.9 | 68.5 |  |  |  |  |  |  |  |  |  | 
O=C(NC(=[Se])Nc1ccc(C(F)(F)F)cc1)c1ccccc1Cl [Compound 2d] | 94.2 | 10.4 | 87.1 | 51.7 | 100 | 37.6 |  |  |  |  |  |  |  |  |  | 
O=C(NC(=[Se])Nc1ccc(Cl)cc1)C12CC3CC(CC(C3)C1)C2 [Compound 7e] | 83.9 | 39 | 53.5 | 45.9 | 111 | 36.4 |  |  |  |  |  |  |  |  |  | 
